Measured values reported in the supplement of paper PMC8149375.

Columns and labels:
Conditions in all cases: treatment: drug + dasatinib (fixed dose, not stated); 5 days
[1] = system: 786-O; assay: AUC of dose-response viability curve, drug + dasatinib, normalised to DMSO (arbitrary (AUC of normalised viability)); higher = less growth inhibition
Procedure: (§1)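 Primary HTS combination arm: 8 RCC cell lines treated with 8 doses (up to 10 uM) of each library drug plus a fixed dose of dasatinib (dose not stated) for 5 days; viability read by CellTiter-Glo and normalised to DMSO. GI50 was fitted with XLfit, AUC is the area under the dose-response curve, and minimum viability is the lowest fraction of DMSO viability across doses.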

[2] = system: SN12C; assay: as above
Procedure: as §1

[3] = system: UO-31; assay: as above
Procedure: as §1

[4] = system: TK-10; assay: as above
Procedure: as §1

[5] = system: CAKI-1; assay: as above
Procedure: as §1

[6] = system: 769-P; assay: as above
Procedure: as §1

[7] = system: ACHN; assay: as above
Procedure: as §1

[8] = system: A498; assay: as above
Procedure: as §1

[9] = system: 786-O; assay: minimum viability across doses, drug + dasatinib, relative to DMSO (fraction); higher = less growth inhibition
Procedure: as §1

[10] = system: SN12C; assay: as above
Procedure: as §1

[11] = system: UO-31; assay: as above
Procedure: as §1

[12] = system: TK-10; assay: as above
Procedure: as §1

[13] = system: CAKI-1; assay: as above
Procedure: as §1

[14] = system: 769-P; assay: as above
Procedure: as §1

[15] = system: ACHN; assay: as above
Procedure: as §1

[16] = system: A498; assay: as above
Procedure: as §1

[17] = system: 786-O; assay: GI50 of drug in presence of dasatinib; higher = less potent
Procedure: as §1

[18] = system: SN12C; assay: as above
Procedure: as §1

[19] = system: UO-31; assay: as above
Procedure: as §1

[20] = system: TK-10; assay: as above
Procedure: as §1

[21] = system: CAKI-1; assay: as above
Procedure: as §1

[22] = system: 769-P; assay: as above
Procedure: as §1

[23] = system: ACHN; assay: as above
Procedure: as §1

[24] = system: A498; assay: as above
Procedure: as §1

Structure (SMILES)	AUC of dose-response viability curve [1]	AUC of dose-response viability curve [2]	AUC of dose-response viability curve [3]	AUC of dose-response viability curve [4]	AUC of dose-response viability curve [5]	AUC of dose-response viability curve [6]	AUC of dose-response viability curve [7]	AUC of dose-response viability curve [8]	minimum viability across doses [9]	minimum viability across doses [10]	minimum viability across doses [11]	minimum viability across doses [12]	minimum viability across doses [13]	minimum viability across doses [14]	minimum viability across doses [15]	minimum viability across doses [16]	GI50 of drug [17] [nM]	GI50 of drug [18] [nM]	GI50 of drug [19] [nM]	GI50 of drug [20] [nM]	GI50 of drug [21] [nM]	GI50 of drug [22] [nM]	GI50 of drug [23] [nM]	GI50 of drug [24] [nM]
Cc1cnc(Nc2ccc(OCCN3CCCC3)cc2)nc1Nc1cccc(S(=O)(=O)NC(C)(C)C)c1 + Cc1nc(Nc2ncc(C(=O)Nc3c(C)cccc3Cl)s2)cc(N2CCN(CCO)CC2)n1 [dasatinib]	1.73	1.97	3.1	1.82	1.66	2.06	1.25	3.11	0.0103	0.00825	0.00873	0.00313	0.00319	0.0211	0.00238	0.0831	492	949	913	357	376	1340	136	3500
CNC(=O)Nc1ccc(-c2nc(N3CC4CCC(C3)O4)c3cnn(C4CCC5(CC4)OCCO5)c3n2)cc1 + Cc1nc(Nc2ncc(C(=O)Nc3c(C)cccc3Cl)s2)cc(N2CCN(CCO)CC2)n1 [dasatinib]	0.872	1.24	1.2	1.19	0.907	1.16	0.872	1.64	0.00307	0.116	0.00565	0.0572	0.0306	0.0698	0.0427	0.0731	10.7	32.3	38.8	32.5	16.7	36.6	9.64	121
Nc1ccc(C(=O)Nc2cccc(-c3nc(N4CCOCC4)c4oc5ncccc5c4n3)c2)cn1 + Cc1nc(Nc2ncc(C(=O)Nc3c(C)cccc3Cl)s2)cc(N2CCN(CCO)CC2)n1 [dasatinib]	1.81	2.16	3.17	2.16	1.61	1.99	1.68	3.03	0.00383	0.345	0.0122	0.0664	0.0783	0.0371	0.152	0.283	476	2590	1510	973	256	850	361	6740
COc1cc2c(Nc3ccc(NC(=O)c4ccccc4)cc3)ncnc2cc1OCCCN1CCOCC1 + Cc1nc(Nc2ncc(C(=O)Nc3c(C)cccc3Cl)s2)cc(N2CCN(CCO)CC2)n1 [dasatinib]	2.13	2.43	3.27	2.35	1.76	2.17	1.54	3.33	0.0181	0.383	0.0966	0.191	0.0572	0.24	0.095	0.283	1210	> 10000	5770	4120	385	2910	4.24	9270
C[C@@H](N)[C@H]1CC[C@H](C(=O)Nc2ccncc2)CC1.Cl.Cl + Cc1nc(Nc2ncc(C(=O)Nc3c(C)cccc3Cl)s2)cc(N2CCN(CCO)CC2)n1 [dasatinib]	2.82	2.5	3.41	2.98	2.31	2.34	2.61	3.4	0.699	0.657	0.697	0.754	0.584	0.588	0.673	0.877	> 10000	> 10000	> 10000	> 10000	> 10000	> 10000	> 10000	> 10000
Cc1nc(NC(=O)N2CCC[C@H]2C(N)=O)sc1-c1csc(C(C)(C)C)n1 [A66] + Cc1nc(Nc2ncc(C(=O)Nc3c(C)cccc3Cl)s2)cc(N2CCN(CCO)CC2)n1 [dasatinib]	1.88	2.33	3.38	2.49	2.31	2.43	2.1	3.64	0.352	0.527	0.761	0.561	0.539	0.548	0.429	0.784	323	> 10000	> 10000	> 10000	> 10000	> 10000	1130	> 10000
CC1(C)CCC(CN2CCN(c3ccc(C(=O)NS(=O)(=O)c4ccc(NCC5CCOCC5)c([N+](=O)[O-])c4)c(Oc4cnc5[nH]ccc5c4)c3)CC2)=C(c2ccc(Cl)cc2)C1 [ABT-199 (GDC-0199 )] + Cc1nc(Nc2ncc(C(=O)Nc3c(C)cccc3Cl)s2)cc(N2CCN(CCO)CC2)n1 [dasatinib]	2.43	2.51	3.9	2.39	2.29	2.58	2.01	3.56	0.586	0.68	1	0.61	0.592	0.692	0.542	0.899	> 10000	> 10000	> 10000	> 10000	> 10000	> 10000	> 10000	> 10000
CC1(C)CCC(c2ccc(Cl)cc2)=C(CN2CCN(c3ccc(C(=O)NS(=O)(=O)c4ccc(N[C@H](CCN5CCOCC5)CSc5ccccc5)c(S(=O)(=O)C(F)(F)F)c4)cc3)CC2)C1 [ABT-263 (Navitoclax)] + Cc1nc(Nc2ncc(C(=O)Nc3c(C)cccc3Cl)s2)cc(N2CCN(CCO)CC2)n1 [dasatinib]	1.46	2.48	2	2.03	2.36	1.92	1.9	3.01	0.00344	0.502	0.00471	0.0882	0.555	0.024	0.0781	0.608	136	> 10000	400	1080	> 10000	768	1060	> 10000
CN(C)CC[C@H](CSc1ccccc1)Nc1ccc(S(=O)(=O)NC(=O)c2ccc(N3CCN(Cc4ccccc4-c4ccc(Cl)cc4)CC3)cc2)cc1[N+](=O)[O-] [ABT-737] + Cc1nc(Nc2ncc(C(=O)Nc3c(C)cccc3Cl)s2)cc(N2CCN(CCO)CC2)n1 [dasatinib]	1.74	2.58	3.71	2.24	2.41	2.31	1.9	3.1	0.00111	0.515	0.00776	0.144	0.65	0.0505	0.23	0.171	469	> 10000	3310	3300	> 10000	2140	2560	5920
CCN1CCN(Cc2ccc(-c3cc4c(N[C@H](C)c5ccccc5)ncnc4[nH]3)cc2)CC1 [AEE788 (NVP-AEE788)] + Cc1nc(Nc2ncc(C(=O)Nc3c(C)cccc3Cl)s2)cc(N2CCN(CCO)CC2)n1 [dasatinib]	2.38	2.16	2.92	1.92	2	1.81	1.19	2.9	0.0446	0.218	0.00751	0.0139	0.0223	0.0653	0.0466	0.258	4450	2100	1790	305	1770	298	13.7	5830
N#C/C(=C\c1ccc(O)c(O)c1)C(=O)NCc1ccccc1 [AG-490] + Cc1nc(Nc2ncc(C(=O)Nc3c(C)cccc3Cl)s2)cc(N2CCN(CCO)CC2)n1 [dasatinib]	2.36	2.49	3.44	2.62	2.43	2.42	1.98	3.3	0.355	0.681	0.8	0.544	0.667	0.488	0.179	0.887	2470	> 10000	> 10000	> 10000	> 10000	8560	2330	> 10000
CC(C)(C)c1cc(C=C(C#N)C#N)cc(Br)c1O [AG-1024] + Cc1nc(Nc2ncc(C(=O)Nc3c(C)cccc3Cl)s2)cc(N2CCN(CCO)CC2)n1 [dasatinib]	2.42	2.55	4.02	2.59	2.24	2.38	2.02	3.66	0.601	0.687	1.06	0.698	0.57	0.586	0.515	0.971	> 10000	> 10000	> 10000	> 10000	> 10000	> 10000	> 10000	> 10000
COc1cc2ncnc(Nc3cccc(Cl)c3)c2cc1OC [AG-1478 (Tyrphostin AG-1478)] + Cc1nc(Nc2ncc(C(=O)Nc3c(C)cccc3Cl)s2)cc(N2CCN(CCO)CC2)n1 [dasatinib]	1.84	2.37	3.65	1.93	2.2	1.67	1.39	3.95	0.284	0.646	0.586	0.363	0.451	0.3	0.236	0.961	37	> 10000	> 10000	726	7730	107	20.9	> 10000
COc1ccc2c(Oc3ccc(NC(=O)c4c(C)n(CC(C)(C)O)n(-c5ccccc5)c4=O)nc3)ccnc2c1 [AMG458] + Cc1nc(Nc2ncc(C(=O)Nc3c(C)cccc3Cl)s2)cc(N2CCN(CCO)CC2)n1 [dasatinib]	2.08	2.06	3.35	2.39	1.92	2.27	1.89	3.38	0.195	0.396	0.0124	0.392	0.085	0.421	0.152	0.771	4000	1730	4300	5300	893	3380	1000	> 10000
